This note sets out measurements from publication PMC10610214 (Pharmaceuticals, 2023).

By IC50 is commonly meant the point on the concentration scale where inhibition reaches its midpoint. The Papp A→B is the apparent permeability from the apical to the basolateral side of a cell layer. Low values mean slow passage, high ones fast passage. Usually Papp B→A stands for how fast a substance crosses the layer from the basolateral side.

One series addresses T1, AChE (from electric eel) (Electrophorus electricus, UniProt O42275).
T1 construct: AChE (from electric eel); purchased Sigma Chemical Company (St. Louis, MO, USA)
Nature of the series: biochemical.

In the next series the test system is NO in BV2 cells. Nature of the series: NO production in LPS-stimulated BV2 cells (Griess). It is filed as cell-based. The following applies: Mus musculus, BV-2, 24 h, read-out: NO inhibition IC50. As for the experimental part: The cytotoxicity of compounds on BV2 cells were evaluated by MTT assay and similar to those described in Section 2.5. The NO concentrations in medium were determined using Griess Reagent assay (Beyotime) in accordance with a previously reported method. Nitrite is reduced to nitrogen oxide using Griess Reagent I. Nitrogen oxide then reacts with Griess Reagent II forming a stable product that can be detected by its absorbance at […]. The two-step assay is simple, fast, and can detect nitrite levels as low as 1 nmol/well. BV2 cells were seeded into a 48-well plate at a density of 6.0 × 10^4 cells per well. After the cells were incubated overnight, the old medium was discarded. Then, the cells were pretreated with various concentrations (10, 5, 1, 0.5, and 0.1 μM) of compounds for 1 h and then co-incubated with LPS (1 μg/mL, 30 μL/well) for 24 h. After 24 h, the cell supernatant (50 μL/well) was placed into a new 96-well plate for experiment. […] The absorbance at […] was measured by a microplate reader.
(The Griess reaction detects nitrite, a stable product of nitric oxide.)

For the next series, the system named is COX-2. Nature of the series: COX-2 expression in LPS-stimulated BV2 cells (Western blot). It is filed as cell-based. The following applies: 1, 2, 4 μM. Here is the method:
BV2 cells were seeded into a 6-well plate at a density of 3.0 × 10^5 cells per well. After incubation overnight, the old medium was discarded. Then, the cells were pretreated with various concentrations (1, 2, and 4 μM) of 4h for 1 h and then co-incubated with LPS (1 μg/mL) for 24 h. After incubation was completed, the cells were washed twice with PBS, and 300 μL of cell lysis buffer (RIRA lysis buffer, phosphatase inhibitor, protease inhibitor, and PMSF) was added to each well. The cells were then incubated on ice for 30 min and centrifuged at 12,000 rpm at 4 °C for 30 min to collect the supernatant. The protein content in the supernatant was detected using the BCA protein detection kit (Beyotime, Shanghai, China). Total proteins were separated by 10% SDS-PAGE and then transferred from the gel to a PVDF membrane (Sigma-Aldrich, Shanghai, China). The membranes were blocked in TBST solution containing 5% skimmed milk for 2 h. Next, the membranes were washed three times (TBST) and incubated with primary antibody dilution (Cell Signaling Technologies, Boston, MA, USA) overnight at 4 °C. Then, they were washed another three times (TBST), incubated with the secondary antibody at room temperature for 90 min, and then washed three times with TBST. The blots were visualized by a chemiluminescence imager (Tanon 5200, Shanghai, China).

In series [1] the test system is scopolamine-induced AD mice. Nature of the series: Morris water maze, scopolamine-induced AD mouse model. It is filed as in vivo. Here is the method:
Mice were reared in a temperature and humidity controlled environment with free access to food and water, with self-adaptive rearing for 4 days.
According to behavioral experiments, 30 mice were randomly divided into 5 groups. […] On day 7, scopolamine hydrobromide was injected intraperitoneally into the of the mouse to establish an AD model. The control group were only injected normal saline. After 30 min, the bodyweight changes in mice during the administration period were recorded.
The MWM is a white circular pool (150 cm in diameter, 60 cm in height; no features on the inner surface) with a water height of 46 cm and a white platform (10 cm in diameter) submerged 1 cm below the water surface. White titanium dioxide (0.25 g/L) was added to make the water turbid to make the platform invisible, and the platform was fixed in the third quadrant of the circular pool (four quadrants in total). Training was performed by allowing mice to stay for 15 s after reaching the platform. If the mice successfully found the platform within 60 s, they were allowed to stay on the platform for 15 s; otherwise, they were brought to the platform and stayed for 15 s. The training was performed four times a day for a total of 4 days of training. Except for the control group, animals were intraperitoneally injected with scopolamine 90 min before the test to induce cognitive deficits mimicking. On day 5, a probe trial was conducted with the platform removed. Mice were placed in the quadrant opposite the target for 60 s, and their swim path was recorded to evaluate memory retention. Performance measures included latency to reach the platform location and time spent in each quadrant.

The test system of the next series is AML-12 cells. Nature of the series: Hepatotoxicity in AML-12 cells (MTT). It is filed as cell-based. The following applies: 10, 30 and 50 μM. As for the experimental part: The hepatotoxicity of compound 4h in normal AML-12 hepatocytes and HepG2 liver cancer cells was examined by MTT method. AML-12 cells and HepG2 cells were seeded into 96-well plates at a density of 5.0 × 10^3 cells per well, respectively. After the cells were incubated overnight, the old medium was discarded. The cells were incubated for 48 h with fresh medium containing various concentrations of the test compound. After 48 h of incubation, 20 μL of MTT (5 mg/mL) was added to each well and incubate for an additional 4 h. Formazan was dissolved with DMSO (150 μL). […]

The next series relates to P-gp (MDR1). Nature of the series: in vitro. It is filed as in vitro ADME. The settings on record: dog, MDCK-MDR1, MDCKII-MDR1. As for the experimental part:
(§1) Specifically, MDCKII-MDR1 cells (1 × 10^5 cell/cm^2) were seeded on polyester 12-well Transwell inserts (pore size: […], diameter: 12 mm, apical volume: 0.5 mL, basolateral: volume 1.5 mL) and cultured for 5–7 days to reach full differentiation as per TEER readings > 250 Ω·cm. […] After an incubation time of 2 h, samples were removed from the apical and basolateral side of the monolayer and were stored at −80 °C until further analysis.
(§2) The Papp was calculated according to the following equation (units of cm/s):(1) Papp=Va/area×time×Drugacceptor/Druginitial where “Va” is the volume in the acceptor well, “time” is the total transport time, “area” is the surface area of the membrane, “[Drug]initial” is the initial drug concentration in the AP or BL chamber, and “[Drug]acceptor” is the concentration of the drug in the acceptor chamber.
(§3) The ER was calculated using the following equation:ER = Papp, BL-AP/Papp, AP-BL(2) where “Papp, BL-AP” is the apparent permeability of basal-to-apical transport, and “Papp, AP-BL” is the apparent permeability of apical-to-basal transport.

In another series the test system is MDCKII-MDR1 cells. Nature of the series: in vitro. It is filed as in vitro ADME. The settings on record: efflux ratio. Here is the method: as §1, §2, §3
The mark [2] stands for this setting: Morris water maze probe trial, day 5.

T1 sequence (O42275 24-633): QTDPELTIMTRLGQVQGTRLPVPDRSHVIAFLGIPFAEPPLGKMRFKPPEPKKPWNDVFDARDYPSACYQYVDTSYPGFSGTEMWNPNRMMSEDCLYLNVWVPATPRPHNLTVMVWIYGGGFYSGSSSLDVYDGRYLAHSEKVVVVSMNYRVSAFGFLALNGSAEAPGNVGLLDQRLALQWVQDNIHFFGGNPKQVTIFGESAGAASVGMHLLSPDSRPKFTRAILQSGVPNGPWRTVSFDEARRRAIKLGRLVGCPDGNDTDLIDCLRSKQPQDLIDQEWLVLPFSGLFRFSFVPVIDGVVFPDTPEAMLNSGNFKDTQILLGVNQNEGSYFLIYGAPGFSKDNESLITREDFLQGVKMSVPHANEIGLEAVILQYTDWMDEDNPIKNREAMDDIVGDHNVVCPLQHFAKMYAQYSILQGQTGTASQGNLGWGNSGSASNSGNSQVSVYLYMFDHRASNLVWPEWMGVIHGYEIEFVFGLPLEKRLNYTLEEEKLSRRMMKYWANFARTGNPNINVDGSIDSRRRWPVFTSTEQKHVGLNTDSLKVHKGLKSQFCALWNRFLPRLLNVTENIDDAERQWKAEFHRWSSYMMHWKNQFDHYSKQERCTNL

`O=C1c2cc(NS(=O)(=O)c3ccccc3F)ccc2-n2c1nc1ccccc1c2=O` [4h]: the IC50 on AChE (from electric eel) (AChE from electric eel, mean ± SD of three experiments, read-out: AChE Inhibition (IC50)) was 130 ± 40 nM. Moreover, the “Selective Index, IC50 (BChE)/IC50 (AChE)” value at AChE (from electric eel) (AChE selectivity index) came out at 47. For the same compound, the half-maximal inhibitory concentration (IC50) in the series with NO in BV2 cells came out at 620 ± 70 nM. Also, the COX-2 expression result in the series with COX-2 was “significantly decreased the expression of COX-2 and iNOS”. The Bodyweight of mice result in series [1] (10 and 30 mg/kg, gavage, 7 days) is recorded as “did not cause any abnormal fluctuations in the bodyweight of mice”. Moreover, in series [1] (setting [2]), the “Dwell time in the target quadrant” value was “markedly higher in the 30 mg/kg dose group than those in the model and 10 mg/kg dose groups”; the “Number of virtual platform crossings” value is “markedly higher in the 30 mg/kg dose group than those in the model and 10 mg/kg dose groups”. Also, the Escape latency entry in series [1] (Morris water maze, 10 and 30 mg/kg gavage, training days) is reported as “decreased in a dose-dependent manner”. Besides, the “Hepatotoxicity in AML-12 cells” value with AML-12 cells is reported as “had no toxicity”. Also, the Papp A→B at 2 h, 75 μM in the series with P-gp (MDR1) (apical-to-basal, 2 h) is 18.1 ± 2.7 ×10⁻⁶ cm/s. In addition, the Papp B→A at 2 h, 75 μM with P-gp (MDR1) (basal-to-apical, 2 h) was determined as 17.4 ± 2.2 ×10⁻⁶ cm/s. In the series on P-gp (MDR1) (efflux ratio, read-out: ER Papp BL/Papp AP), the efflux ratio at 2 h, 75 μM was 0.96. In addition, the “ER Papp BL/Papp AP” value with MDCKII-MDR1 cells is listed as “less than two”.
